From patent US8530486B2, “Quinazolines and related heterocyclic compounds, and their therapeutic use” (Vereniging Voor Christelijk Hoger Onderwijs, …, priority 2008, dated 2013)

Molecular target: T1, human H4 receptor (Homo sapiens, UniProt Q9H3N8)
T1 construct: expressed in transfected cells; host or cells: HEK 293T cells, transient transfection with polyethyleneimine
Experiment: [3H]Histamine binding assay (radioligand displacement at the human H4 receptor)
Conditions: [3H]histamine displacement, membranes of HEK 293T cells transfected with human H4R; read-out: Activity Class* (Ki in H4 binding assay)

Ki, < 1000 nM:
CN1CCN(c2nc(NCCS(=O)(=O)Nc3ccccc3)c3cc(Cl)c(Cl)cc3n2)CC1 [Example 12, 2-(6,7-dichloro-2-(4-methylpiperazin-1-yl)quinazoline-4-amino)-N-phenylethanesulfonamide]
CN1CCN(c2nc(NCCS(=O)(=O)Nc3ccccc3)c3ccc(Cl)c(Cl)c3n2)CC1 [Example 16, 2-(7,8-dichloro-2-(4-methylpiperazin-1-yl)quinazoline-4-amino)-N-phenylethanesulfonamide]
CN1CCN(c2nc(NCCS(=O)(=O)Nc3ccccc3)c3c(Cl)cc(Cl)cc3n2)CC1 [Example 17, 2-(5,7-dichloro-2-(4-methylpiperazin-1-yl)quinazoline-4-amino)-N-phenylethanesulfonamide]
CN1CCN(c2nc(NCCS(=O)(=O)Nc3ccc(I)cc3)c3cc(Cl)ccc3n2)CC1 [Example 8, 2-(6-chloro-2-(4-methylpiperazin-1-yl)quinazoline-4-amino)-N-(4-iodophenyl)ethanesulfonamide]
CN1CCN(c2nc(NCCS(=O)(=O)Nc3ccccc3)c3cc(Cl)cc(Cl)c3n2)CC1 [Example 14]
